In publication PMC7211193, “Evaluation of absorption, distribution, metabolism, and excretion of [^14C]-rucaparib, a poly(ADP-ribose) polymerase inhibitor, in patients with advanced solid tumors” (Investigational New Drugs, 2019):

What was measured:
Format in all cases: in vivo, human
[1] = Safety assessment (CTCAE v4.03 adverse events)
Procedure: The safety of rucaparib was evaluated during the study. The National Cancer Institute Common Terminology Criteria for Adverse Events (CTCAE) grading system (version 4.03) was used to describe the severity of the adverse events (AEs) that occurred. Clinical laboratory, vital sign, 12-lead ECG, and physical examinations were also part of the safety assessment.

[2] = Plasma pharmacokinetics of unchanged rucaparib (LC-MS/MS) after a single oral dose of [14C]-rucaparib 600 mg
Procedure: Six patients received a single oral dose of [^14C]-rucaparib 600 mg (approximately 5.18 MBq or 140 μCi) on day 1 after fasting for 10 h and were confined at the study site for the collection of blood samples and excreta for a maximum of 12 days.
Blood samples were collected in K2 ethylenediaminetetraacetic acid (K2-EDTA) tubes at the following time points: 0 (predose), 1, 2, 3, 4, 8, 12, 24, 48, 72, 96, 120, and 144 h after administration. Blood samples were taken via an indwelling intravenous catheter or by direct vein puncture into appropriate tubes. Aliquots of blood samples were centrifuged at 1600–2000×g for 10 min at 4 °C, and supernatants were collected for plasma samples. All plasma and blood samples were stored at −70 °C until analysis. Plasma and blood samples were evaluated for total radioactivity (TRA) by liquid scintillation (LSC), parent drug concentrations by liquid chromatography (LC) with tandem mass spectrometry (MS/MS) analyses, and metabolite profiling by LC coupled to diode array ultraviolet (UV) detection and MS or radioactivity detection.
Plasma concentrations of rucaparib were determined by Q^2 Solutions (Ithaca, NY, USA) using a validated LC-MS/MS method as previously described. The concentration range for quantitation was 5–10,000 ng/mL.
Blood and plasma TRA data and the plasma concentration of rucaparib were used to determine the Cmax, tmax, AUC from time zero to time of last measurable concentration (AUC0-t), and AUC from time zero to infinity (AUC0-inf), apparent volume of distribution (Vd/F), apparent clearance (CL/F), and terminal half-life (t1/2). Phoenix WinNonlin software version 6.3 or higher (Certara, Princeton, NJ, USA) was used to run a noncompartmental method analysis on the PK data.

[3] = Metabolite profiling in pooled feces (LC-MS-Radiomatic); conditions: for % Dose in feces: pooled fecal homogenate, % of administered dose
Procedure: For each patient, homogenized feces samples from different collection intervals were pooled in proportion to their sample weight in order to obtain a pooled sample covering 90% of the TRA recovered in feces. Aliquots of the pooled fecal samples were extracted at least twice with acetonitrile. The obtained supernatant was evaporated. The dried residues were reconstituted in 40% DMSO in water to obtain maximum recovery. An aliquot of the supernatant was analyzed for TRA to determine extraction efficiency, and the mean recovery was ≈75%. Aliquots of the supernatants were injected into the HPLC coupled to UV and radioactive detectors to obtain metabolite profiles. The sample supernatants were also analyzed using LC-MS to identify metabolites.
Metabolite profiling and identification were performed on an LC system (Agilent) coupled to an LTQ Orbitrap mass spectrometer (Thermo Electron, Waltham, MA, USA) in combination with offline TopCount (LC-MS-TopCount) or online Radiomatic 625TR (LC-MS-Radiomatic; PerkinElmer). Proposed structures of the metabolites were based on accurate mass (<5 ppm) and comparison of mass spectral data of parent compound rucaparib and metabolite standard M324. The Radiomatic 625TR flow detector, equipped with a 200 μL flow cell, was operated using scintillation cocktail (Ultima-Flo M) delivered at a flow rate of 1 mL/min. Chromatography was done using a Phenomenex (Torrance, CA, USA) Luna Phenyl-Hexyl column (250 × 2 mm, 5 μm, 100 Å) at ambient temperature during the sample analysis. The mobile phase was (A) 0.05% TFA in water and (B) 0.05% TFA in acetonitrile, with a 0.2 mL/min flow rate. The gradient was as follows: 5% B over 2.1 min, to 20% B in 1.0 min, to 35% B in 16.9 min, isocratic at 35% B for 5 min, to 95% B over 5 min, and reduced to 5% B over 1 min, with total run time 45 min.
The abundance of unchanged rucaparib and metabolites identified in plasma, urine, and feces was determined as a percentage of the TRA in the analyzed samples. Percentage of the administered dose of rucaparib and metabolites was calculated in urine and feces (formula A). The concentration of rucaparib and its metabolites in plasma (ng Eq h/mL) was calculated based on the specific activity, TRA, and percentage of peaks (formula B). The AUC0-24h value of rucaparib and its major metabolite M324 in plasma was calculated using both Hamilton method (formula C) and linear trapezoidal method (formula D). • (A) %Doseofmetabolite=TRAinurineorfeces(dpm)÷TRAinadministereddose(dpm)×%metabolitesinmatrix • (B) Metaboliteconcentrationsinplasma(ngEq/mL)=TRAinplasma(dpm/mL)specificactivity(ngEq/dpm)×%metabolitesinthematrix • (C) Hamiltonmethod:AUC0−24h(ngEqh/mL)=concentrationinHamilton(AUC0−24h)pooledplasma(ngEq/mL)×24(h) • (D) Lineartrapezoidalmethod:AUC0−24h(ngEqh/mL)=C1h/2×1h+C1h+C4h/2×(4h−1h)+C4h+C8h/2×(8h−4h)+C8h+C24h/2×(24h−8h)

[4] = unchanged rucaparib by LC-MS/MS, single oral 600 mg, N = 6, mean ± SD

For `CNCc1ccc(-c2[nH]c3cc(F)cc4c3c2CCNC4=O)cc1` [Rucaparib, rucaparib], the “Total treatment-emergent AEs (TEAEs)” value ([1]; events, in four of six patients, single oral 600 mg) was “five”, the “Relation, severity and seriousness of TEAEs” value ([1]; investigator assessment) was “No TEAE was considered to be related to the study drug by the investigators, had a severity of more than CTCAE grade 2, led to a withdrawal of the patient, or was a serious AE” and the “Patients with TEAE vomiting” value ([1]; two events in two of six patients) was 33.3%. For the same compound, the “AUC0-24h ratio of unlabeled rucaparib to TRA in plasma” value ([2]; LC-MS/MS versus LSC) was 0.412, the AUC(0-inf) ([2]; human, plasma, unchanged rucaparib by LC-MS/MS, single oral 600 mg, N = 6, mean ± SD, read-out: AUC0-inf, rucaparib concentration in plasma) was 9340 ± 3480 ng·h/mL and the AUC(0-t) ([2]; human, plasma, unchanged rucaparib by LC-MS/MS, single oral 600 mg, N = 6, mean ± SD, read-out: AUC0-t, rucaparib concentration in plasma) was 8950 ± 3230 ng·h/mL. For the same compound, the Cmax ([2]; human, plasma, unchanged rucaparib by LC-MS/MS, single oral 600 mg, N = 6, mean ± SD, read-out: Cmax, rucaparib concentration in plasma) was 428 ± 154 ng/mL, the Vd/F ([2]; human, plasma, unchanged rucaparib by LC-MS/MS, single oral 600 mg, N = 6, mean ± SD, read-out: Vd/F, rucaparib concentration in plasma) was 2300 ± 490 L and the “AUC0-24h/AUC0-inf ratio, plasma unchanged rucaparib” value ([2]; in vivo) was 0.537. The “Mean CL/F of rucaparib relative to that of TRA” value ([2]; plasma) was “approximately 3.8 fold”, the “Mean Vd/F of rucaparib relative to that of TRA” value ([2]; plasma) was roughly 2.8 fold and the “CL/F, rucaparib concentration in plasma” value [2, 4] was 73.9 ± 45.5 L/h. For the same compound, the “t1/2, rucaparib concentration in plasma” value [2, 4] was 25.9 ± 10.1 h, the “t1/2, rucaparib concentration in plasma” value ([2]; unchanged rucaparib by LC-MS/MS, single oral 600 mg, N = 6, mean ± SD, listed as rucaparib) was greater than 25 h and the “tmax, rucaparib concentration in plasma” value ([2]; unchanged rucaparib by LC-MS/MS, single oral 600 mg, N = 6, median (range)) was 4 (0.933–8.00) h. For the same compound, the “% of dose in pooled fecal homogenate, Patient 01” value ([3]; Patient 01) was 50.6 % dose, the “% of dose in pooled fecal homogenate, Patient 05” value ([3]; Patient 05) was 55.8 % dose and the “% of dose in pooled fecal homogenate, Patient 06” value ([3]; Patient 06) was 70.1 % dose. For the same compound, the “% of dose in pooled fecal homogenate, Patient 08” value ([3]; Patient 08) was 68.2 % dose, the “% of dose in pooled fecal homogenate, Patient 09” value ([3]; Patient 09) was 71.8 % dose and the “% Peak (of TRA) in feces” value ([3]; pooled fecal homogenate covering >90% of fecal excretion, N = 6, mean ± SD) was 94.9 ± 4.95%. For the same compound, the “% Dose in feces” value ([3]; N = 6, mean ± SD) was 63.9 ± 8.60% and the “% Dose in feces” value ([3]; N = 6, mean ± SD, listed as rucaparib) was 63.9% and ≈ 64%.
